# In publication PMC8942502 (Journal of Enzyme Inhibition and Medicinal Chemistry, 2022):
# How the values were obtained:
# LSD1-CoREST complex [1] = assay: LSD1-CoREST inhibition assay (Amplex UltraRed/HRP, H3K4 peptide); type: biochemical, human; details: for LSD1 selectivity vs MAO-A: IC50 MAO-A/IC50 LSD1; for LSD1 selectivity vs MAO-B: IC50 MAO-B/IC50 LSD1
# LSD1-CoREST complex [2] = target: T1, LSD1-CoREST complex (Homo sapiens, UniProt O60341); assay: as above; type: biochemical; details: for IC50: mean ± SD from two experiments in duplicate, 10 min preincubation; for fold drop of anti-LSD1 potency compared with phenyl analogue: para compounds vs 1a, meta compound vs 1b
# T1 construct: made in house; host or cells: Escherichia coli
# hMAO-A = target: T2, hMAO-A (Homo sapiens, UniProt P21397); assay: Anti-MAO assay (Amplex Red, p-tyramine); type: biochemical; details: for MAO Selectivity Index: IC50 MAO-B/IC50 MAO-A; for IC50: mean ± SD, n = 3
# T2 construct: purchased Sigma-Aldrich
# T2 sequence (P21397 1-527): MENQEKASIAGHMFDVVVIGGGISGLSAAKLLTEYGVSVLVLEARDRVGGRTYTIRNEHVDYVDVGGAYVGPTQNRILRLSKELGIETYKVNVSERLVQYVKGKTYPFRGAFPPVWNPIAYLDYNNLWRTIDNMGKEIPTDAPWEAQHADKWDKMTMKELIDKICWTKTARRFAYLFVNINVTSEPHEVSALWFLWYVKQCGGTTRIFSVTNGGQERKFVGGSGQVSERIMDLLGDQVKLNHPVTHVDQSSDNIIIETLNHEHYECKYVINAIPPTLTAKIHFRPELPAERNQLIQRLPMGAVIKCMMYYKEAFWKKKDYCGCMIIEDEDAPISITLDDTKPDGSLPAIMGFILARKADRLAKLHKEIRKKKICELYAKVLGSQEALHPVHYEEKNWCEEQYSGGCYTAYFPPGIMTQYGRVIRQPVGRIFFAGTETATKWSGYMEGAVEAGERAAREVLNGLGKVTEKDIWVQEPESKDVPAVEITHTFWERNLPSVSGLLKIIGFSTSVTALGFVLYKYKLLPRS
# hMAO-B = target: T3, hMAO-B (Homo sapiens, UniProt P27338); assay: Anti-MAO assay (Amplex Red, p-tyramine); type: biochemical; details: mean ± SD, n = 3
# T3 construct: purchased Sigma-Aldrich
# T3 sequence (P27338 1-520): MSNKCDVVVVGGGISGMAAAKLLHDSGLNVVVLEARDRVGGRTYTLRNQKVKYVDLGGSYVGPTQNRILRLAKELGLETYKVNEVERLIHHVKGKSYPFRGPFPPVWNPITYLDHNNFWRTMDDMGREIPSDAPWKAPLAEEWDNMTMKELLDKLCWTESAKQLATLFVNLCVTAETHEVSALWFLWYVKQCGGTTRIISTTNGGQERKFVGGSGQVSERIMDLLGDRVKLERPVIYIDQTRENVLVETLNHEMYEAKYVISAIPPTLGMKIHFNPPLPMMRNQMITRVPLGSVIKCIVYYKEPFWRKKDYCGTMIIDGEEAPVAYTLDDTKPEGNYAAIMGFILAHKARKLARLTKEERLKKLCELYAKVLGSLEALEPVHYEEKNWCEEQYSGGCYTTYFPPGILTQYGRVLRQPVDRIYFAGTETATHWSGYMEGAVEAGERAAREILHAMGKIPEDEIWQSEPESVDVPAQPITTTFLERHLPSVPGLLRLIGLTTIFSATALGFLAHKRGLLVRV
# U937 cells = assay: MTT cell viability assay; type: cell-based; details: 0.1-50 μM, 48 and 72 h
# Protocol: (§1) The tested compounds have been dissolved in DMSO at […] as stock concentration. All compounds have been tested at 10 μM and 50 μM as final concentrations for WB analysis. All compounds have been used at 0.1 μM, 5 μM, 10 μM, 25 μM, 50 μM as final concentration for proliferation assays. ORY-1001 (Selleck Catalog No. S7795) was used as reference compound at the concentration of 25 μM.
# (§2) Cell culture LNCaP and U937 were purchased from ATCC (Milan, Italy). LNCaP were grown in Roswell Park Memorial Institute culture medium (RPMI; EuroClone, Milan, Italy), supplemented with 10% heat-inactivated foetal bovine serum (FBS; Sigma-Aldrich, Schnellendorf, Germany), antimicrobials (100 U/mL penicillin, 100 µg/mL streptomycin, 250 ng/mL amphotericin-B), 2 mM L-glutamine (EuroClone, Milan, Italy), and 1% essential amino acids solution (MEM; EuroClone, Milan, Italy). U937 were cultured in Dulbecco’s Modified Eagle Medium (DMEM; EuroClone, Milan, Italy), supplemented with 10% heat-inactivated foetal bovine serum (FBS; Sigma-Aldrich, Schnellendorf, Germany), antimicrobials (100 U/mL penicillin, 100 µg/mL streptomycin, 250 ng/mL amphotericin-B), 2 mM L-glutamine (EuroClone). Cells have grown in standard incubator conditions at 37 °C and 5% CO2.
# (§3) Cell viability was determined on LNCaP and U937 cell lines using Thiazolyl Blue Tetrazolium Bromide [3-(4,5-dimethylthiazol-2-yl)-2,5-diphenyltetrazolium bromide] (MTT; Sigma-Aldrich, Schnellendorf, Germany) assay, following manufacturer’s instructions. A total of 5 × 10^3 cells/well were plated in a 96-well plate and treated, in duplicates, and repeated for three times, with the tested compounds at different concentrations 0.1 μM, 5 μM, 10 μM, 25 μM, 50 μM as final concentrations for 48 h, and 72 h. […] Absorbance was read at a wavelength of 570 nm with a TECAN M − 200 reader (Tecan, Männedorf, Switzerland).
# LNCaP cells = assay: MTT cell viability assay; type: cell-based; details: Homo sapiens
# Protocol: as §1, §2, §3
# MAO-A = details: Figure 1; cited from earlier work
# LSD1 = details: Figure 1; cited from earlier work
# MAO-B = details: Figure 1; cited from earlier work
Compound,melting point,LSD1 selectivity vs MAO-A (LSD1-CoREST complex [1]),LSD1 selectivity vs MAO-B (LSD1-CoREST complex [1]),IC50 (LSD1-CoREST complex [2]),fold higher potency against LSD1 of meta regioisomer than para counterpart (LSD1-CoREST complex [2]; meta vs para),MAO Selectivity Index (hMAO-A),IC50 (hMAO-A),IC50 (hMAO-B),effect on cell viability in U937 cells (U937 cells),IC50 (LNCaP cells; 48 h),IC50 (LNCaP cells; 72 h),fold drop of anti-LSD1 potency compared with phenyl analogue (LSD1-CoREST complex [2]),IC50 (MAO-A),IC50 (LSD1),IC50 (MAO-B)
"Cl.NC1CC1c1ccc(NC(=O)c2cccc(-c3ccccc3)c2)cc1 (stereo not shown) [1b, N-(4-(2-Aminocyclopropyl)phenyl)-[1,1′-biphenyl]-3-carboxamide hydrochloride]",> 250 °C,0.2,2.2,149 ± 43 nM,1.3 fold,11.7,28 ± 2 nM,327 ± 28 nM,the most potent,22800 ± 5100 nM,9900 ± 1700 nM,–,–,–,–
"Cl.NC1CC1c1ccc(NC(=O)c2ccc(-c3ccco3)cc2)cc1 (stereo not shown) [2a, N-(4-(2-Aminocyclopropyl)phenyl)-4-(furan-2-yl)benzamide hydrochloride]",–,–,–,2000 ± 528 nM,–,1.7,43 ± 4 nM,73 ± 6 nM,–,–,–,–,–,–,–
"Cl.NC1CC1c1ccc(NC(=O)c2ccc(-c3ccoc3)cc2)cc1 (stereo not shown) [3a, N-(4-(2-Aminocyclopropyl)phenyl)-4-(furan-3-yl)benzamide hydrochloride]",–,–,–,2340 ± 225 nM,–,0.6,160 ± 14 nM,93 ± 8 nM,–,–,–,–,–,–,–
"Cl.NC1CC1c1ccc(NC(=O)c2ccc(-c3ccncc3)cc2)cc1 (stereo not shown) [6a, N-(4-(2-Aminocyclopropyl)phenyl)-4-(pyridin-4-yl)benzamide hydrochloride]",> 250 °C,–,–,13900 ± 3060 nM,–,5.2,69 ± 6 nM,358 ± 31 nM,–,–,–,73 fold,–,–,–
"Cl.NC1CC1c1ccc(NC(=O)c2cccc(-c3ccncc3)c2)cc1 (stereo not shown) [6b, N-(4-(2-Aminocyclopropyl)phenyl)-3-(pyridin-4-yl)benzamide hydrochloride]",> 250 °C,0.3,18.2,572 ± 157 nM,–,66,159 ± 14 nM,10400 ± 300 nM,–,–,–,4 fold,–,–,–
"Cl.NC1CC1c1ccc(NC(=O)c2ccc(-c3ccsc3)cc2)cc1 (stereo not shown) [5a, N-(4-(2-Aminocyclopropyl)phenyl)-4-(thiophen-3-yl)benzamide hydrochloride]",–,–,–,341 ± 106 nM,–,1.6,42 ± 4 nM,67 ± 6 nM,the most potent,26500 ± 4800 nM,17900 ± 1600 nM,–,–,–,–
"Cl.NC1CC1c1ccc(NC(=O)c2ccc(-c3cccs3)cc2)cc1 (stereo not shown) [4a, N-(4-(2-Aminocyclopropyl)phenyl)-4-(thiophen-2-yl)benzamide hydrochloride]",> 250 °C,–,–,1080 ± 359 nM,–,1.3,25 ± 2 nM,32 ± 3 nM,–,–,–,–,–,–,–
"Cl.NC1CC1c1ccc(NC(=O)c2cccc(-c3ccsc3)c2)cc1 (stereo not shown) [5b, N-(4-(2-Aminocyclopropyl)phenyl)-3-(thiophen-3-yl)benzamide hydrochloride]",> 250 °C,–,–,5 ± 0.8 nM,–,–,28 ± 2 nM,820 ± 71 nM,the most potent,32100 ± 7800 nM,17200 ± 3500 nM,–,–,–,–
"Cl.NC1CC1c1ccc(NC(=O)c2cccc(-c3ccoc3)c2)cc1 (stereo not shown) [3b, N-(4-(2-Aminocyclopropyl)phenyl)-3-(furan-3-yl)benzamide hydrochloride]",235 to 238 °C,5.1,2.3,221 ± 23 nM,–,0.5,1120 ± 97 nM,519 ± 36 nM,the most potent,12400 ± 6100 nM,13400 ± 3700 nM,–,–,–,–
"NC1CC1c1ccc(NC(=O)c2ccccc2)cc1 (stereo not shown) [MC2584, reference compound]",–,–,–,–,–,–,–,–,–,–,–,–,31 nM,19 nM,8980 nM
"Cl.NC1CC1c1ccc(NC(=O)c2cccc(-c3ccco3)c2)cc1 (stereo not shown) [2b, N-(4-(2-Aminocyclopropyl)phenyl)-3-(furan-2-yl)benzamide hydrochloride]",208 to 210 °C,0.8,8.1,110 ± 44 nM,–,9.5,93 ± 8 nM,888 ± 77 nM,almost ineffective,27600 ± 9800 nM,18500 ± 2700 nM,–,–,–,–
"Cl.NC1CC1c1ccc(NC(=O)c2cccc(-c3cccs3)c2)cc1 (stereo not shown) [4b, N-(4-(2-Aminocyclopropyl)phenyl)-3-(thiophen-2-yl)benzamide hydrochloride]",245 to 248 °C,1.6,24.4,15 ± 3 nM,–,15.3,24 ± 2 nM,366 ± 32 nM,almost ineffective,25700 ± 8300 nM,15200 ± 3500 nM,–,–,–,–
